From PMC11434100, “Biomimetic Metal–Organic Framework Gated Nanoplatform for Sonodynamic Therapy against Extensively Drug Resistant Bacterial Lung Infection” (Advanced Science, 2024)
In brackets after ≈: the same amount, converted by molar mass.

Experiments:
XDR-AB = experiment: Drug sensitivity test of clinical strains (Table S2); assay type: cell-based, Acinetobacter baumannii; settings: value in brackets; for MIC: Acinetobacter baumannii
XDR-PA = experiment: as above; assay type: cell-based, Pseudomonas aeruginosa; settings: value in brackets; for MIC: Pseudomonas aeruginosa
XDR-Kp = experiment: as above; assay type: cell-based, Klebsiella pneumoniae; settings: value in brackets; for MIC: Klebsiella pneumoniae
XDR-E. coli = experiment: as above; assay type: cell-based, Escherichia coli; settings: value in brackets; for MIC: Escherichia coli
[1] = test system: XDR-AB (clinically isolated XDR Acinetobacter baumannii); experiment: Minimum inhibitory concentration, broth dilution (Table S1); assay type: cell-based; settings: CLSI guidelines, 10^5 CFU mL−1, 24 h, 37 °C, visible growth
Description: (§1) Four clinically isolated XDR strains were cultured in LB media at 37 °C with rotation (180 rpm) overnight. […] The bacterial concentration was adjusted to 10^5 CFU mL^−1.

[2] = test system: XDR-E. coli (clinically isolated XDR Escherichia coli); experiment: as above; assay type: cell-based; settings: CLSI guidelines, 10^5 CFU mL−1, 24 h, 37 °C, visible growth
Description: as §1

[3] = test system: XDR-Kp (clinically isolated XDR Klebsiella pneumoniae); experiment: as above; assay type: cell-based; settings: CLSI guidelines, 10^5 CFU mL−1, 24 h, 37 °C, visible growth
Description: as §1

[4] = test system: XDR-PA (clinically isolated XDR Pseudomonas aeruginosa); experiment: as above; assay type: cell-based; settings: CLSI guidelines, 10^5 CFU mL−1, 24 h, 37 °C, visible growth
Description: as §1

## NCC[C@H](O)C(=O)N[C@@H]1C[C@H](N)[C@@H](O[C@H]2O[C@H](CN)[C@@H](O)[C@H](O)[C@H]2O)[C@H](O)[C@H]1O[C@H]1O[C@H](CO)[C@@H](O)[C@H](N)[C@H]1O [Amikacin]
XDR-AB
  MIC: ≥ 64 µg/mL
XDR-PA
  MIC: ≥ 64 µg/mL
XDR-Kp
  MIC: ≥ 64 µg/mL
XDR-E. coli
  MIC: ≥ 64 µg/mL

## CC(C)(O/N=C(\C(=O)N[C@@H]1C(=O)N2C(C(=O)[O-])=C(C[n+]3ccccc3)CS[C@H]12)c1csc(N)n1)C(=O)O [Ceftazidime]
XDR-AB
  MIC: ≥ 64 µg/mL
XDR-PA
  MIC: ≥ 64 µg/mL
XDR-Kp
  MIC: ≥ 64 µg/mL
XDR-E. coli
  MIC: ≥ 64 µg/mL

## Cc1nnc(SCC2=C(C(=O)O)N3C(=O)[C@@H](NC(=O)Cn4cnnn4)[C@H]3SC2)s1 [Cefazolin]
XDR-AB
  MIC: ≥ 64 µg/mL
XDR-PA
  MIC: ≥ 64 µg/mL
XDR-Kp
  MIC: ≥ 64 µg/mL
XDR-E. coli
  MIC: ≥ 64 µg/mL

## Gentamycin
XDR-AB
  MIC (drug sensitivity test): >= 16 µg mL-1
XDR-PA
  MIC (drug sensitivity test): >= 16 µg mL-1
XDR-Kp
  MIC (drug sensitivity test): >= 16 µg mL-1
XDR-E. coli
  MIC (drug sensitivity test): >= 16 µg mL-1

## C[C@H]1COc2c(N3CCN(C)CC3)c(F)cc3c(=O)c(C(=O)O)cn1c23 [Levofloxacin]
XDR-AB
  MIC: ≥ 8 µg/mL
XDR-PA
  MIC: ≥ 8 µg/mL
XDR-Kp
  MIC: ≥ 8 µg/mL
XDR-E. coli
  MIC: 11 µg/mL (≈ 30.4 µM)

## CC1(C)S[C@@H]2[C@H](NC(=O)[C@H](N)c3ccccc3)C(=O)N2[C@H]1C(=O)O [Ampicillin]
XDR-AB
  MIC: ≥ 32 µg/mL
XDR-PA
  MIC: ≥ 32 µg/mL
XDR-Kp
  MIC: ≥ 32 µg/mL
XDR-E. coli
  MIC: ≥ 32 µg/mL

## CO[C@@]1(NC(=O)C2SC(=C(C(N)=O)C(=O)O)S2)C(=O)N2C(C(=O)O)=C(CSc3nnnn3C)CS[C@@H]21 (some centres unmarked) [Cefotetan]
XDR-AB
  MIC: ≥ 64 µg/mL
XDR-PA
  MIC: ≥ 64 µg/mL
XDR-Kp
  MIC: ≥ 64 µg/mL
XDR-E. coli
  MIC: ≥ 64 µg/mL

## CN(C)c1cc(NC(=O)CNC(C)(C)C)c(O)c2c1C[C@H]1C[C@H]3[C@H](N(C)C)C(O)=C(C(N)=O)C(=O)[C@@]3(O)C(O)=C1C2=O [Tigecycline]
XDR-AB
  MIC: 0.38 µg/mL (≈ 0.649 µM)

## Polymyxin B [PMB]
[1]
  MIC: 32 µg/mL
[2]
  MIC: 16 µg/mL
[3]
  MIC: 16 µg/mL
[4]
  MIC: 8 µg/mL
XDR-PA
  MIC (drug sensitivity test): 0.5 µg/mL
XDR-E. coli
  MIC (drug sensitivity test): 0.5 µg/mL

## CO/N=C(\C(=O)N[C@@H]1C(=O)N2C(C(=O)[O-])=C(C[N+]3(C)CCCC3)CS[C@H]12)c1csc(N)n1 [Cefepime]
XDR-AB
  MIC: ≥ 64 µg/mL
XDR-PA
  MIC: ≥ 64 µg/mL
XDR-Kp
  MIC: ≥ 64 µg/mL
XDR-E. coli
  MIC: ≥ 64 µg/mL

## C[C@@H](O)[C@H]1C(=O)N2C(C(=O)O)=C(SCCN=CN)C[C@H]12 [Imipenem]
XDR-AB
  MIC: ≥ 16 µg/mL
XDR-PA
  MIC: ≥ 16 µg/mL
XDR-Kp
  MIC: ≥ 16 µg/mL
XDR-E. coli
  MIC: ≥ 16 µg/mL

## NC[C@H]1O[C@H](O[C@H]2[C@H](O)[C@@H](O[C@H]3O[C@H](CO)[C@@H](O)[C@H](N)[C@H]3O)[C@H](N)C[C@@H]2N)[C@H](N)C[C@@H]1O [Tobramycin]
XDR-AB
  MIC: ≥ 16 µg/mL
XDR-PA
  MIC: ≥ 16 µg/mL
XDR-Kp
  MIC: ≥ 16 µg/mL
XDR-E. coli
  MIC: ≥ 16 µg/mL
